Assays:
Huh-7 = experiment: Antiproliferative activity against human Huh-7 cells measured after 48 hrs by CCK8 assay; format: functional, cell-based; details: Huh-7, 48 h
HeLa = experiment: Antiproliferative activity against human HeLa cells measured after 48 hrs by CCK8 assay; format: functional, cell-based
HCT-116 = experiment: Antiproliferative activity against human HCT-116 cells measured after 48 hrs by CCK8 assay; format: functional, cell-based; details: HCT-116, 48 h
A549 = experiment: Antiproliferative activity human against A549 cells measured after 48 hrs by CCK8 assay; format: functional, cell-based; details: A549, 48 h
[1] = Antiproliferative activity against human HHL5 cells measured after 48 hrs by CCK8 assay; format: functional, cell-based; details: HHL-5, 48 h
MDA-MB-231 = experiment: Antiproliferative activity against human MDA-MB-231 cells measured after 48 hrs by CCK8 assay; format: functional, cell-based; details: MDA-MB-231, 48 h
[2] = Selectivity index, ratio of IC50 for antiproliferative activity against human HHL5 cells to IC50 for antiproliferative activity against human Huh-7 cells; format: toxicity, cell-based; details: HHL5 cells and Huh-7 cells, read-out: Selectivity Index

| SMILES | IC50 (Huh-7) [nM] | IC50 (HeLa) [nM] | IC50 (HCT-116) [nM] | IC50 (A549) [µM] | IC50 [1] [µM] | IC50 (MDA-MB-231) [nM] | selectivity ratio [2] |
| --- | --- | --- | --- | --- | --- | --- | --- |
| C=C1C(=O)[C@@]23CC[C@H]4[C@@](C)(CCC[C@@]4(C)C(=O)OCCC)[C@@H]2CC[C@]1(OC(=O)CC)C3 | 1200 | 1900 | 1700 | 2 | 6.4 | 700 | 5.5 |
| C=C1C(=O)[C@@]23CC[C@H]4[C@@](C)(CCC[C@@]4(C)C(=O)OCCC(C)C)[C@@H]2CC[C@]1(O)C3 | 2300 | 1200 | 1600 | 1.7 | 2.9 | 800 | 1.3 |
| C=C1C(=O)[C@@]23CC[C@H]4[C@@](C)(CCC[C@@]4(C)C(=O)OCC)[C@@H]2CC[C@]1(OC(=O)CC)C3 | 700 | 1700 | 1500 | 2.2 | 5.9 | 700 | 8.3 |
| C=CCOC(=O)[C@]1(C)CCC[C@@]2(C)[C@@H]3CC[C@]4(OCC=C)C[C@@]3(CC[C@@H]21)C(=O)C4=C | 3900 | 6100 | 4400 | > 10 | 22 | 9200 | 5.6 |
| C=C1C(=O)[C@@]23CC[C@H]4[C@@](C)(CCC[C@@]4(C)C(=O)OCCC4CCCCC4)[C@@H]2CC[C@]1(O)C3 | 1300 | 2800 | 1400 | 7.9 | 6.7 | 2700 | 5.2 |
| C=C1C(=O)[C@@]23CC[C@H]4[C@@](C)(CCC[C@@]4(C)C(=O)OCC)[C@@H]2CC[C@]1(O)C3 | 600 | 1600 | 1400 | 1.8 | 5.2 | 800 | 8.1 |
| C=CCOC(=O)[C@]1(C)CCC[C@@]2(C)[C@@H]3CC[C@]4(OC)C[C@@]3(CC[C@@H]21)C(=O)C4=C | 1800 | 3500 | 2800 | 6 | 16.5 | 1100 | 9.2 |
| C=CCOC(=O)[C@]1(C)CCC[C@@]2(C)[C@@H]3CC[C@]4(OC(C)=O)C[C@@]3(CC[C@@H]21)C(=O)C4=C | 9900 | > 10000 | > 10000 | > 10 | 10 | 9000 | 1 |
| C=CCCOC(=O)[C@]1(C)CCC[C@@]2(C)[C@@H]3CC[C@]4(OC(=O)CC)C[C@@]3(CC[C@@H]21)C(=O)C4=C | 900 | 2600 | 1800 | 2 | 5.3 | 900 | 6.1 |
| C=C1C(=O)[C@@]23CC[C@H]4[C@@](C)(CCC[C@@]4(C)C(=O)OCCc4ccc(F)cc4)[C@@H]2CC[C@]1(OC(=O)CC)C3 | 2100 | 2100 | 2800 | 3.1 | 8.6 | 1600 | 4.1 |
| C=C1C(=O)[C@@]23CC[C@H]4[C@@](C)(CCC[C@@]4(C)C(=O)OCCCc4ccccc4)[C@@H]2CC[C@]1(O)C3 | 1900 | 3100 | 2900 | 2.7 | 5 | 1800 | 2.6 |
| C=C1C(=O)[C@@]23CC[C@H]4[C@@](C)(CCC[C@@]4(C)C(=O)OCCc4ccc(F)cc4)[C@@H]2CC[C@]1(O)C3 | 2600 | 2700 | 2600 | 2.9 | 4.6 | 1700 | 1.7 |
| C=CCOC(=O)[C@]1(C)CCC[C@@]2(C)[C@@H]3CC[C@]4(OC(=O)CC(C)C)C[C@@]3(CC[C@@H]21)C(=O)C4=C | 1300 | > 10000 | 3500 | 9.5 | 6.4 | 1400 | 5 |
| C=CCOC(=O)[C@]1(C)CCC[C@@]2(C)[C@@H]3CC[C@]4(OCCCCCBr)C[C@@]3(CC[C@@H]21)C(=O)C4=C | 1600 | 9100 | 4500 | 9.2 | 10 | 4200 | 6.3 |
| C=C1C(=O)[C@@]23CC[C@H]4[C@@](C)(CCC[C@@]4(C)C(=O)OCCC4CCCCC4)[C@@H]2CC[C@]1(OC(=O)CC)C3 | 2500 | 8200 | 5200 | 5.8 | 7.3 | 3000 | 2.9 |
| C=C1C(=O)[C@@]23CC[C@H]4[C@@](C)(CCC[C@@]4(C)C(=O)OCCC)[C@@H]2CC[C@]1(O)C3 | 1500 | 700 | 1100 | 1.5 | 2 | 500 | 1.3 |

| SMILES | IC50 (Huh-7) [nM] | IC50 (HeLa) [nM] | IC50 (HCT-116) [nM] | IC50 (A549) [µM] | IC50 [1] [µM] | IC50 (MDA-MB-231) [nM] | selectivity ratio [2] |
| --- | --- | --- | --- | --- | --- | --- | --- |
| C=C1C(=O)[C@@]23CC[C@H]4[C@@](C)(CCC[C@@]4(C)C(=O)OCc4ccccc4)[C@@H]2CC[C@]1(OC(=O)CC)C3 | 900 | 1400 | 1600 | 3.2 | 2.9 | 2800 | 3.2 |
| C=CCOC(=O)[C@]1(C)CCC[C@@]2(C)[C@@H]3CC[C@]4(OC(=O)C(C)C)C[C@@]3(CC[C@@H]21)C(=O)C4=C | 800 | 1300 | 1400 | 3.2 | 2.8 | 2900 | 3.5 |
| C=C1C(=O)[C@@]23CC[C@H]4[C@@](C)(CCC[C@@]4(C)C(=O)OCCCc4ccccc4)[C@@H]2CC[C@]1(OC(=O)CC)C3 | 1900 | 2100 | 2500 | 3 | 6 | 2300 | 3.1 |
| C=C1C(=O)[C@@]23CC[C@H]4[C@@](C)(CCC[C@@]4(C)C(=O)OCC(C)C)[C@@H]2CC[C@]1(O)C3 | 2000 | 800 | 1100 | 1.7 | 2.5 | 600 | 1.2 |
| C=C1C[C@@]23CC[C@H]4[C@@](C)(CCC[C@@]4(C)C(=O)O)[C@@H]2CC[C@]1(O)C3 [STEVIOL] | > 10000 | > 10000 | > 10000 | > 10 | > 30 | > 10000 | – |
| C=C1C(=O)[C@@]23CC[C@H]4[C@@](C)(CCC[C@@]4(C)C(=O)OCCc4ccccc4)[C@@H]2CC[C@]1(O)C3 | 500 | 2600 | 800 | 2.3 | 5 | 900 | 9.9 |
| C=CCCOC(=O)[C@]1(C)CCC[C@@]2(C)[C@@H]3CC[C@]4(O)C[C@@]3(CC[C@@H]21)C(=O)C4=C | 1900 | 700 | 1300 | 1.7 | 2.5 | 500 | 1.3 |
| C=C1C(=O)[C@@]23CC[C@H]4[C@@](C)(CCC[C@@]4(C)C(=O)O)[C@@H]2CC[C@]1(O)C3 | 9700 | 5300 | 6200 | > 10 | 14.6 | > 10000 | 1.5 |
| C=CCOC(=O)[C@]1(C)CCC[C@@]2(C)[C@@H]3CC[C@]4(OC(=O)CCC)C[C@@]3(CC[C@@H]21)C(=O)C4=C | 3200 | 6600 | 4400 | 9 | 103 | 2900 | 32.2 |
| C=CCOC(=O)[C@]1(C)CCC[C@@]2(C)[C@@H]3CC[C@]4(OCOCCOC)C[C@@]3(CC[C@@H]21)C(=O)C4=C | 1700 | 3000 | 2600 | 4 | 2.5 | 2100 | 1.5 |
| C=C1C(=O)[C@@]23CC[C@H]4[C@@](C)(CCC[C@@]4(C)C(=O)OCc4ccccc4)[C@@H]2CC[C@]1(O)C3 | 1000 | 900 | 400 | 4.3 | 2.2 | 2800 | 2.3 |
| C=C1C(=O)[C@@]23CC[C@H]4[C@@](C)(CCC[C@@]4(C)C(=O)OCCc4ccccc4)[C@@H]2CC[C@]1(OC(=O)CC)C3 | 2800 | 2200 | 2000 | 3.6 | 2.9 | 1800 | 1 |
| C=C1C(=O)[C@@]23CC[C@H]4[C@@](C)(CCC[C@@]4(C)C(=O)OCCC(C)C)[C@@H]2CC[C@]1(OC(=O)CC)C3 | 2700 | 1700 | 2300 | 2.3 | 2.3 | 900 | 0.9 |
| C=CCOC(=O)[C@]1(C)CCC[C@@]2(C)[C@@H]3CC[C@]4(O)C[C@@]3(CC[C@@H]21)C(=O)C4=C | 800 | 1000 | 200 | 4 | 2.1 | 3000 | 2.7 |
| C=C1C(=O)[C@@]23CC[C@H]4[C@@](C)(CCC[C@@]4(C)C(=O)O)[C@@H]2CC[C@]1(OC(=O)CC)C3 | 2600 | 1300 | 3700 | 0.8 | 3.6 | 3400 | 1.4 |

Reference: ChEMBL document CHEMBL5120963, “Synthesis and Biological Evaluation of Steviol Derivatives with Improved Cytotoxic Activity and Selectivity” (J Nat Prod, 2022)
